Values belong to the compound of their own block, whether it stands above or below them.
What was measured:
PSMA on LNCaP cells = target: T1, PSMA on LNCaP cells (Homo sapiens, UniProt Q04609); test: In vitro competition binding assay (displacement of 18F-DCFPyL); details: for Ki: inhibition of 18F-DCFPyL binding to PSMA on LNCaP cells, n=3
T1 construct: endogenous in cells; host or cells: LNCaP prostate cancer cells
Protocol: 1.14 In Vitro Competition Binding Assay
In vitro competition binding assays were conducted as previously reported using LNCaP prostate cancer cells and ^18F-DCFPyL as the radioligand. ^18 Briefly, LNCaP cells (400,000/well) were plated onto a 24-well poly-D-lysine coated plate for 48 h. Growth media was removed and replaced with HEPES buffered saline (50 mM HEPES, pH 7.5, 0.9% sodium chloride) and the cells were incubated for 1 h at 37° C. ^18F-DCFPyL (0.1 nM) was added to each well (in triplicate) containing various concentrations ([…]) of tested compounds (Lu-PSMA-617 or Lu-HTK01169). Non-specific binding was determined in the presence of 10 μM non-radiolabeled DCFPyL. The assay mixtures were further incubated for 1 h at 37° C. with gentle agitation. Then, the buffer and hot ligand were removed, and cells were washed twice with cold HEPES buffered saline. To harvest the cells, 400 μL of 0.25% trypsin solution was added to each well. Radioactivity was measured on a PerkinElmer (Waltham, Mass.) Wizard2 2480 automatic gamma counter. Nonlinear regression analyses and Ki calculations were performed using the GraphPad Prism 7 software.

[1] = test system: mice bearing LNCaP tumor xenografts; test: PET/CT imaging of 68Ga-labeled compounds; assay type: in vivo
How it was run: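 Male NOD SCID IL2Rγ KO mice bore subcutaneous LNCaP xenografts (1×10^7 cells, tumours 5-8 mm) and received 6-8 MBq tracer via tail vein under 2% isoflurane. At 50 min p.i., a 10-min CT and a 10-min static PET were acquired. For the 3 h time point, scanning began at 170 min p.i. with a 15-min static PET.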

[2] = test system: mice bearing PSMA-expressing LNCAP cancer xenografts; test: Biodistribution of 68Ga-labeled compounds; assay type: in vivo
How it was run: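 NOD-SCID IL2RγKO male mice carried subcutaneous LNCaP xenografts grown to 5-8 mm over 5-6 weeks. Organs and blood were collected at 1 or 3 h after injection of the radiotracer and gamma-counted. Uptake was normalized to injected dose via a standard curve and expressed as %ID/g.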

[3] = test system: metastatic prostate cancer; details: advanced metastatic prostate cancer patients; cited from earlier work

T1 sequence (Q04609 whole entry): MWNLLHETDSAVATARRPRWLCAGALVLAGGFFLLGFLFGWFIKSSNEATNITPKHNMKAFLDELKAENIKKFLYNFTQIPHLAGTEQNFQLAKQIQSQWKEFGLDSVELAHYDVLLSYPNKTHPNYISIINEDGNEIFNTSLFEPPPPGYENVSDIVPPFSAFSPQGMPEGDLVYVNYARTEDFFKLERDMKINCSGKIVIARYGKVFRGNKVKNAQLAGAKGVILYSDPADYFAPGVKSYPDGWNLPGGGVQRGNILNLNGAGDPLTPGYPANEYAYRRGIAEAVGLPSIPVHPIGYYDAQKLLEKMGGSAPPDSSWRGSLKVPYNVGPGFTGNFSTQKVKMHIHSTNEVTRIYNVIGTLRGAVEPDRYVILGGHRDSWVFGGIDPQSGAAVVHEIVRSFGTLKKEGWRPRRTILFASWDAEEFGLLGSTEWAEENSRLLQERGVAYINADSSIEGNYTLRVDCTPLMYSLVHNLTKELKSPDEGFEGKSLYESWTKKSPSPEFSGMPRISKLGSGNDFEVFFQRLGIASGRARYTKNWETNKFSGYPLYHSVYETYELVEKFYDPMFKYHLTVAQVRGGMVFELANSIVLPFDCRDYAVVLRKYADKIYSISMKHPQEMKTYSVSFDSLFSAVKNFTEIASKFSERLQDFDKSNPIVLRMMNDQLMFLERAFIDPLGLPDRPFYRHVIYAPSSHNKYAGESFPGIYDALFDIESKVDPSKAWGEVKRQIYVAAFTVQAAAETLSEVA

Structure (SMILES): O=C([O-])CN1CCN(CC(=O)[O-])CCN(CC(=O)NCCCC[C@H](NC(=O)[C@H](CCC(=O)O)NC(=O)CCCc2ccc(I)cc2)C(=O)NC[C@H]2CC[C@H](C(=O)N[C@@H](Cc3ccc4ccccc4c3)C(=O)NCCCC[C@H](NC(=O)N[C@@H](CCC(=O)O)C(=O)O)C(=O)O)CC2)CCN(CC(=O)[O-])CC1.[Lu+3] [Lu-HTK01169]
Ki (PSMA on LNCaP cells): 0.04 ± 0.01 nM
improvement in PSMA binding compared to Lu-PSMA-617 (PSMA on LNCaP cells; ratio of Ki values): 6 fold

Structure (SMILES): O=C([O-])CN1CCN(CC(=O)[O-])CCN(CC(=O)NCC2CCC(C(=O)N[C@@H](Cc3ccc4ccccc4c3)C(=O)NCCCC[C@H](NC(=O)N[C@@H](CCC(=O)O)C(=O)O)C(=O)O)CC2)CCN(CC(=O)[O-])CC1.[Lu+3] (stereo partly drawn) [Lu-PSMA-617, reference compound]
Ki (PSMA on LNCaP cells): 0.24 ± 0.06 nM

change of tumor uptake from 1 h to 3 h post-injection ([1]; PET/CT images): increases over time
blood retention (qualitative) ([1]; PET/CT images at 1 h and 3 h post-injection, comparison within the figure): significantly higher blood retention
Adrenal glands uptake ([2]; 1 h post-injection): 3.99 ± 1.94 % ID/g
Blood uptake ([2]; 1 h post-injection): 16.8 ± 2.14 % ID/g
Bone uptake ([2]; 1 h post-injection): 0.71 ± 0.10 % ID/g
Brain uptake ([2]; 1 h post-injection): 0.20 ± 0.02 % ID/g
Fat uptake ([2]; 1 h post-injection): 1.87 ± 0.80 % ID/g
Heart uptake ([2]; 1 h post-injection): 3.95 ± 0.72 % ID/g
Intestine uptake ([2]; 1 h post-injection): 1.14 ± 0.13 % ID/g
Kidneys uptake ([2]; 1 h post-injection): 24.3 ± 3.03 % ID/g
Lacrimal uptake ([2]; 1 h post-injection): 0.16 ± 0.07 % ID/g
Liver uptake ([2]; 1 h post-injection): 3.37 ± 0.85 % ID/g
Lungs uptake ([2]; 1 h post-injection): 7.68 ± 1.33 % ID/g
Muscle uptake ([2]; 1 h post-injection): 1.23 ± 0.15 % ID/g
Pancreas uptake ([2]; 1 h post-injection): 1.36 ± 0.22 % ID/g
Salivary uptake ([2]; 1 h post-injection): 2.48 ± 0.36 % ID/g
Seminal uptake ([2]; 1 h post-injection): 0.90 ± 0.15 % ID/g
Spleen uptake ([2]; 1 h post-injection): 2.00 ± 0.34 % ID/g
Stomach uptake ([2]; 1 h post-injection): 0.59 ± 0.13 % ID/g
Tail uptake ([2]; 1 h post-injection): 3.77 ± 0.91 % ID/g
Testes uptake ([2]; 1 h post-injection): 1.95 ± 0.20 % ID/g
Thyroid uptake ([2]; 1 h post-injection): 3.36 ± 0.24 % ID/g
Tumor uptake ([2]; 1 h post-injection): 8.54 ± 0.74 % ID/g
Tumor:Blood ratio ([2]; 1 h post-injection): 0.52 ± 0.10
Tumor:Muscle ratio ([2]; 1 h post-injection): 7.09 ± 1.37
Urine uptake ([2]; 1 h post-injection): 21.5 ± 9.93 % ID/g
Adrenal glands uptake ([2]; 3 h post-injection): 2.89 ± 0.28 % ID/g
Blood uptake ([2]; 3 h post-injection): 13.6 ± 1.23 % ID/g
Bone uptake ([2]; 3 h post-injection): 0.64 ± 0.03 % ID/g
Brain uptake ([2]; 3 h post-injection): 0.16 ± 0.02 % ID/g
Fat uptake ([2]; 3 h post-injection): 1.30 ± 0.13 % ID/g
Heart uptake ([2]; 3 h post-injection): 3.00 ± 0.41 % ID/g
Intestine uptake ([2]; 3 h post-injection): 0.98 ± 0.16 % ID/g
Kidneys uptake ([2]; 3 h post-injection): 30.0 ± 8.66 % ID/g
Lacrimal uptake ([2]; 3 h post-injection): 0.10 ± 0.13 % ID/g
Liver uptake ([2]; 3 h post-injection): 2.73 ± 0.90 % ID/g
Lungs uptake ([2]; 3 h post-injection): 6.00 ± 0.88 % ID/g
Muscle uptake ([2]; 3 h post-injection): 1.04 ± 0.12 % ID/g
Pancreas uptake ([2]; 3 h post-injection): 1.27 ± 0.13 % ID/g
Salivary uptake ([2]; 3 h post-injection): 2.15 ± 0.37 % ID/g
Seminal uptake ([2]; 3 h post-injection): 0.89 ± 0.05 % ID/g
Spleen uptake ([2]; 3 h post-injection): 1.93 ± 0.55 % ID/g
Stomach uptake ([2]; 3 h post-injection): 0.63 ± 0.12 % ID/g
Tail uptake ([2]; 3 h post-injection): 3.75 ± 1.53 % ID/g
Testes uptake ([2]; 3 h post-injection): 2.08 ± 0.42 % ID/g
Thyroid uptake ([2]; 3 h post-injection): 2.76 ± 0.21 % ID/g
Tumor uptake ([2]; 3 h post-injection): 16.9 ± 3.16 % ID/g
Tumor:Blood ratio ([2]; 3 h post-injection): 1.25 ± 0.32
Tumor:Muscle ratio ([2]; 3 h post-injection): 16.6 ± 4.11
Urine uptake ([2]; 3 h post-injection): 53.9 ± 14.6 % ID/g
Structure (SMILES): Cc1ccc(CCCC(=O)NCC(=O)N[C@@H](CCCCNC(=O)CN2CCN(CC(=O)[O-])CCN(CC(=O)[O-])CCN(CC(=O)[O-])CC2)C(=O)NC[C@H]2CC[C@H](C(=O)N[C@@H](Cc3ccc4ccccc4c3)C(=O)NCCCC[C@H](NC(=O)N[C@@H](CCC(=O)O)C(=O)O)C(=O)O)CC2)cc1.[68Ga+3] [^68Ga-HTK03090]

Structure (SMILES): O=C([O-])CC[C@H](NC(=O)N[C@@H](CCCCNC(=O)[C@H](Cc1ccc2ccccc2c1)NC(=O)[C@H]1CC[C@H](CNC(=O)CN2CCN(CC(=O)[O-])CCN(CC(=O)[O-])CCN(CC(=O)[O-])CC2)CC1)C(=O)[O-])C(=O)[O-].[225Ac].[H+].[H+].[H+] [^225Ac-PSMA-617]
response [3]: impressive responses

— patent publication US20200339625A1, “NOVEL RADIOMETAL-BINDING COMPOUNDS FOR DIAGNOSIS OR TREATMENT OF PROSTATE SPECIFIC MEMBRANE ANTIGEN-EXPRESSING CANCER” (PROVINCIAL HEALTH SERVICES AUTHORITY, priority 2017, published 2020)
